Where two headings read alike, the source gives them in different places.

The procedure of data set [1]:
(§1) The 3xTg-AD mice and WT mice (female, 9 months old) used for the present study were habituated to handling for 14 days prior to the experiment. Female mice were used because the female 3xTg-AD mice develop behavioral deficits faster than the male mice. The selection of the age of 9 months was because the 3xTg-AD mice at this age show neurogenic and neuroplastic deficits but no NFTs or amyloid plaques and are cognitively impaired. Intranasal delivery was carried out manually without anesthesia while the mouse head was restrained in a supine position with the neck in extension, as described. A total of 1.75 U/17.5 μl insulin or 0.9% saline (Veh 1) was delivered over both nares alternatively using a 10 μl Eppendorf pipetter. The mouse was held for an additional 5-10 seconds to ensure the fluid was inhaled. […] All mice were treated with insulin or, as a control, saline daily for 7 consecutive days. […] The brains were removed immediately, and the rostral halves (separated coronally at the bregma level) of the mouse brains were dissected, flash frozen in dry ice, and stored at −80° C. for biochemical analyses at a later date.
Hypothermia is known to be a major factor underlying anesthesia-induced tau hyperphosphorylation. Therefore, the rectal temperature of the mice was determined.

In data set [2] the test system is tau protein kinases (GSK-3β, MAPK/ERK, cdk5, CaMKII, JNK). Format: in vivo. As for the experimental part: as §1
Mouse brain tissue was homogenized in pre-chilled buffer containing 50 mM Tris-HCl (pH 7.4), 50 mM GlcNAc, 20 μM UDP, 2.0 mM EGTA, 2 mM Na3VO4, 50 mM NaF, 20 mM Glycero-phosphate, 0.5 mM AEBSF, 10 μg/ml aprotinin, 10 μg/ml leupeptin, and 4 μg/ml pepstatin A. Protein concentrations of the homogenates were determined by using modified Lowery method. The samples were resolved in 10% or 12.5% SDS-PAGE and electro-transferred onto Immobilon-P membrane (Millipore, Bedford, Mass., USA). The blots were then probed with primary antibody and developed with the corresponding horseradish peroxidase-conjugated secondary antibody and ECL kit (Pierce, Rockford, Ill.). Densitometrical quantification of protein bands in Western blots were analyzed by using the TINA software (Raytest IsotopenmeBgerate GmbH, Straubenhardt, Germany).
Besides PP2A, tau phosphorylation is also regulated by several protein kinases. The levels of several tau protein kinases have been reported to be altered after anesthesia. We therefore determined the levels of the total and the activated form of several tau protein kinases, including glycogen synthase kinase-3β (GSK-3β), mitogen-activated protein kinase/extracellular signal-regulated kinase (MAPK/ERK), cyclin-dependent kinase 5 (cdk5), calcium/calmodulin-dependent protein kinase II (CaMKII), and c-Jun N-terminal kinase (JNK).

The test system of the next data set is tau phosphorylation. The data set can be described thus: Western blot of tau phosphorylation in brain homogenates of 3xTg-AD mice. In kind it is in vivo. As to conditions: intranasal insulin 1.75 U daily 7 days before propofol, 30 min following propofol. The protocol:
(§2) The 3xTg-AD mice and WT mice (female, 9 months old) used for the present study were habituated to handling for 14 days prior to the experiment. Female mice were used because the female 3xTg-AD mice develop behavioral deficits faster than the male mice. The selection of the age of 9 months was because the 3xTg-AD mice at this age show neurogenic and neuroplastic deficits but no NFTs or amyloid plaques and are cognitively impaired. Intranasal delivery was carried out manually without anesthesia while the mouse head was restrained in a supine position with the neck in extension, as described. A total of 1.75 U/17.5 μl insulin or 0.9% saline (Veh 1) was delivered over both nares alternatively using a 10 μl Eppendorf pipetter. The mouse was held for an additional 5-10 seconds to ensure the fluid was inhaled. […]
(§3) Mouse brain tissue was homogenized in pre-chilled buffer containing 50 mM Tris-HCl (pH 7.4), 50 mM GlcNAc, 20 μM UDP, 2.0 mM EGTA, 2 mM Na3VO4, 50 mM NaF, 20 mM Glycero-phosphate, 0.5 mM AEBSF, 10 μg/ml aprotinin, 10 μg/ml leupeptin, and 4 μg/ml pepstatin A. Protein concentrations of the homogenates were determined by using modified Lowery method. […] Densitometrical quantification of protein bands in Western blots were analyzed by using the TINA software (Raytest IsotopenmeBgerate GmbH, Straubenhardt, Germany).

The subject of the next data set is phosphorylated tau. Description: Immunohistochemical staining of brain sections with 12E8 and PHF-1. Format: in vivo, 3xTg-AD mice. Conditions: frontal cortex; 30 min after propofol; 3xTg-ins/prop vs 3xTg-veh1/prop. As for the experimental part:
as §1

In another data set the test system is brain insulin signaling. The data set can be described thus: Western blot of brain insulin signaling components. In kind it is in vivo, 3xTg-AD mice. As to conditions: intranasal insulin 7 days prior to propofol; 3xTg-ins/prop vs 3xTg-veh1/prop. As for the experimental part: as §2, §3
On the technique in general: A western blot detects proteins with antibodies after separation by electrophoresis.

A further data set has as its system PP2A. Description: Western blot of PP2A-C level, methylation and Tyr307 phosphorylation in brain. In kind it is in vivo, 3xTg-AD mice. As to conditions: intranasal insulin 7 days before propofol. As for the experimental part: as §2, §3
The subject of another data set is old wild type mice. The data set can be described thus: Morris water maze (MWM) test after anesthesia. The protocol:
This paradigm of anesthesia is similar to that used clinically for surgical patents in the U.S. The cognitive function of the mice was assessed starting on the next day by using the Morris water maze (MWM) test, a widely used cognitive test for rodents.
Probe testing was carried out on the following day after four-day training and was used to evaluate the retrieval of spatial memory.

Setting [3] is: insulin treatment before anesthesia vs anesthesia alone.

With `CC(C)c1cccc(C(C)C)c1O` [propofol], the average rectal temperature in data set [1] (two hours after propofol injection (250 mg/kg i.p.)) was found to be 25.6 °C. For the same compound, in data set [1] (within 30 min after propofol injection (250 mg/kg i.p.), from around 38.2° C.), the average rectal temperature came out at 28.6 °C. Also, in data set [2] (after anesthesia with propofol), the “GSK-3β and ERK” value is on record as “inhibition”; the JNK result is given as “activation”; the “a few other tau kinases” value is recorded as “moderate alterations”; the “inhibitory Ser9 phosphorylation of GSK-3β” value is “dramatic increase”.
For the compound Insulin, in the data set on tau phosphorylation (3xTg-ins/prop vs 3xTg-veh1/prop), the “phosphorylation level of tau at Thr212, Ser262/356 (12E8 sites), Ser396/404 (PHF-1 sites), Ser409” value was “significantly lower”. In the data set with tau phosphorylation (insulin-treated vs untreated), the “phosphorylation level of tau at Thr181, Ser199, Thr205, Thr231, Ser422” value is recorded as “the decreases did not reach statistical significance”. For the same compound, the “body temperature, insulin-treated vs untreated mice” value in data set [1] (during propofol anesthesia, intranasal insulin 7 days before) is recorded as “no difference”. Further, the “number of strongly stained neurons (12E8, PHF-1)” value in the data set on phosphorylated tau was “markedly reduced”. In addition, in the data set on brain insulin signaling, the “levels of IRβ, IGF-1Rβ, IRβ pY1150/1151, IRS1 pS307, PI3K p85 pY458, PI3K p55 pY199, PDK1, AKT and AKT pT308” value is given as “up-regulated”. Further, the “net PP2A methylation” value in the data set on PP2A (after normalization with the PP2A-C level) is listed as “not increased”. In addition, in the data set with PP2A (normalized with GAPDH, vs 3xTg-veh1/prop), the “level and methylation of PP2A in the mouse brain” value is recorded as “significant increase”. For the same compound, the “CDK5, CaMKII pT286 and JNK pT184/pY185” value in data set [2] (intranasal insulin treatment, propofol-treated mouse brains) was “mild to moderate reductions”. In addition, the swimming speeds result in the data set with old wild type mice (among the four groups (control, anesthesia, insulin+anesthesia, insulin)) is reported as “not different”. In the data set on old wild type mice (setting [3]), the “number of platform location crossing during probe test” value is reported as “increased” and the “time to reach the platform location during probe test” value is “decreased”. The spatial learning result with old wild type mice (insulin treatment to control mice without anesthesia) was “did not affect spatial learning significantly”. Moreover, the “learning performance (time to reach the platform, four training days)” value in the data set with old wild type mice (intranasal insulin 1.75 IU/mouse/day for 7 days before one-time anesthesia) is given as “as good as control mice”.

Source of the values: patent publication US9603905B2, “Intranasal insulin administration for the minimization of anesthesia-induced memory loss” (priority 2014, dated 2017).
